According to article PMC6057649, “Development of NanoLuc-PEST expressing Leishmania mexicana as a new drug discovery tool for axenic- and intramacrophage-based assays” (PLoS Neglected Tropical Diseases, 2018):

System: NanoLuc-PEST expressing L. mexicana axenic amastigotes
Assay: microbe, parasite or virus in culture
Assay type: cell-based
Conditions: for Relative Bioluminescence (%) / viability at 2 µM / viability at 10 µM: 72 hours, relative to DMSO only control, n = 4; for viability at 2 µM / viability at 10 µM: Leishmania mexicana, read-out: Relative Bioluminescence (%); for EC50: read-out: EC50, Axenic Amastigotes
[1] = hit compounds from the axenic amastigote screen, S3 Table

SMILES | Relative Bioluminescence (%) (2 µM compound) | Relative Bioluminescence (%) (10 µM compound) | further results
NC(=O)c1cc(-c2ccsc2)ccc1OCCOc1ccccc1 [MMV687138] | 56.61% | 48.25% | –
COC(=O)Nc1nc2ccc(C(=O)c3ccccc3)cc2[nH]1 [MMV003152, Mebendazole, reference compound] | – | – | viability at 2 µM (2 µM compound): 0.9%; viability at 10 µM (10 µM compound): -0.49%; EC50, Axenic Amastigotes [1]: could not be resolved
CS(=O)(=O)c1ccccc1C(=O)N(Cc1ccccc1)c1ccccc1 [MMV688798] | 64.37% | 62.11% | –
CNC(=O)C1Cc2ccccc2N1C(=O)Cc1ccc(F)cc1 (centres unmarked) [MMV188296] | 81.46% | 106.72% | –
Cc1nc2ccccn2c1C(=O)NCc1ccc(Cl)cc1 [MMV012074] | 98.27% | 123.86% | –
Nc1nc2cc(-c3cncc(Oc4ccc(F)cc4)c3)ccc2[nH]1 [MMV687248] | 81.54% | 88.99% | –
O=C(NCc1ccoc1)N1CCN(Cc2ccc3c(c2)OCO3)CC1 [MMV688553] | 90.94% | 98.31% | –
FC(F)(F)c1nnc2ccc(Cl)nn12 [MMV069458] | 115.05% | 112.41% | –
COc1cc(Br)cc2cc(C(=O)Nc3cccc(C(F)(F)F)c3)c(=O)oc12 [MMV688891] | 75.74% | 64.36% | –
CC(C)n1nc(-c2cc3c(Cl)cccc3[nH]2)c2c(N)ncnc21 [MMV688417] | 76.07% | -0.98% | –
COc1cc(C(F)(F)F)nc2ccc(C)c(N)c12 [MMV047015] | 86.47% | 82.90% | –
Cc1cc(C)cc(COc2ccc3c(C)c(CCC(=O)O)c(=O)oc3c2C)c1 [MMV676476] | 1.36% | -0.27% | EC50 [1]: 580 nM
O=S(=O)(c1ccc(Cl)cc1)N1CCN(C(=S)NCc2ccco2)CC1 [MMV000858] | 100.91% | 108.52% | –
COc1cccc(-c2nc3c(N4CCCC4)cccc3n2CC2CCCN2)n1 (centres unmarked) [MMV687703] | 48.25% | 76.96% | –
CN1CCC[C@@H]1CCO[C@](C)(c1ccccc1)c1ccc(Cl)cc1 [MMV637229, Clemastine, reference compound] | – | – | viability at 2 µM (2 µM compound): 47.3%; viability at 10 µM (10 µM compound): 11.2%
CCc1nc2ccc(Cl)cn2c1C(=O)NCc1ccc(N2CCC(c3ccc(OC(F)(F)F)cc3)CC2)cc1 [MMV687696] | 113.56% | 57.87% | –
O=C(Nc1nc(-c2ccccn2)cs1)C1CC1c1ccccc1F (centres unmarked) [MMV1028806] | 58.01% | -0.60% | –
CCC(Sc1nc2ccccc2o1)C(=O)Nc1nnc(C)s1 (centres unmarked) [MMV611037] | 55.30% | 44.60% | –
COc1cccc(-n2nnnc2S(C)(=O)=O)c1 [MMV272144] | 2.64% | 0.19% | EC50 [1]: 640 nM
NC(N)=Nc1ccc(-c2ccc(-c3ccc(N=C(N)N)cc3Cl)o2)c(Cl)c1 [MMV688179] | 105.96% | 54.50% | –

SMILES | Relative Bioluminescence (%) (2 µM compound) | Relative Bioluminescence (%) (10 µM compound) | further results
CCn1ncc2c(NC3CCOCC3)c(CNC(=O)c3ccnn3C)c(C)nc21 [MMV026356] | 76.21% | 65.05% | –
O=C(Cn1ccnc1[N+](=O)[O-])NCc1ccccc1 [MMV688773, Benznidazole, reference compound] | – | – | viability at 2 µM (2 µM compound): 110%; viability at 10 µM (10 µM compound): 132%
CC1CC1C(=O)NC1CCN(CC2(c3ccccc3)CCCCC2)CC1 (centres unmarked) [MMV020120] | 92.92% | 99.97% | –
Brc1cncc(-c2cc(NCCCn3ccnc3)nc(-c3ccccc3)n2)c1 [MMV661713] | 76.01% | 83.31% | –
CC(=O)NC[C@H]1CN(c2ccc(-c3ccc(CNCc4cnn[nH]4)cc3)c(F)c2)C(=O)O1 [MMV688327, Radezolid, reference compound] | – | – | viability at 2 µM (2 µM compound): 87.8%; viability at 10 µM (10 µM compound): 126%
CC(C)/N=c1\cc2n(-c3ccc(Cl)cc3)c3ccccc3nc-2cc1Nc1ccc(Cl)cc1 [MMV687800, Clofazimine, reference compound] | – | – | viability at 2 µM (2 µM compound): 41.1%; viability at 10 µM (10 µM compound): 37.9%
c1ccc(-c2cc(N3CCCCC3)c3ccccc3n2)nc1 [MMV560185] | 64.27% | 94.77% | –
NC(=O)c1cc(Br)ccc1OCCOc1ccccc1 [MMV687243] | 65.34% | 78.50% | –
CCN(CC)C(=O)N1CCN(C)CC1 [MMV002816, Diethylcarbamazine, reference compound] | – | – | viability at 2 µM (2 µM compound): 88.8%; viability at 10 µM (10 µM compound): 62.5%
COc1ccc2nc(C)cc(OCC(=O)NCc3ccccc3)c2c1 [MMV687189] | 92.36% | 81.16% | –
Cc1cc(C)nc(-n2nc(C)cc2Nc2ccccc2)n1 [MMV062221] | 64.16% | 7.64% | –
Nc1ncnc2c1ncn2C[C@@H](O)[C@@H](O)C(=O)O [MMV689255, D-Eritadenine] | 68.65% | 73.04% | –
O=C(c1ccc(F)cc1)N(CCNc1ccccc1)c1ccccc1 [MMV676204] | 116.49% | 99.37% | –
CON=C(C(=O)OC)c1ccccc1CON=C(C)c1cccc(C(F)(F)F)c1 [MMV688754, Trifloxystrobin] | – | – | viability at 2 µM (2 µM compound): 67.6%; viability at 10 µM (10 µM compound): -1.92%
Cc1ccc2[nH]c(C3CCCNC3)c(-c3ccncc3)c2c1 (centres unmarked) [MMV024311] | 109.56% | 88.36% | –
CC(C)=CCC/C(C)=C\CNCCNC1C2CC3CC(C2)CC1C3 (centres unmarked) [MMV687273] | 68.48% | 81.32% | –
CCCc1ccc(S(=O)(=O)Nc2ccc(CN3CCN(CC4CC4)CC3)cc2)cc1 [MMV688125] | 86.53% | 100.33% | –
COc1ccccc1C(C)NCC(=O)Nc1cc(C(F)(F)F)ccc1Cl (centres unmarked) [MMV020321] | 118.65% | 131.13% | –
Cc1cc(NC(=O)c2ccc(Oc3ccc(Cl)cc3O)o2)no1 [MMV688955] | 95.96% | 96.76% | –
N#Cc1nc(-c2ccccc2)oc1S(=O)(=O)c1ccc(Cl)cc1 [MMV676412] | 0.46% | -0.09% | EC50 [1]: 260 nM

SMILES | Relative Bioluminescence (%) (2 µM compound) | Relative Bioluminescence (%) (10 µM compound) | further results
NS(=O)(=O)c1cncc(-c2ccc3nccc(-c4cn[nH]c4)c3n2)c1 [MMV024101] | 98.92% | 49.51% | –
COc1ccc2nccc(NC(=O)C3CCN(CCc4ccc(Cl)cc4)CC3)c2n1 [MMV688844] | 77.54% | 91.56% | –
CC(C(=O)Nc1ccc2oc(-c3ccncc3)nc2c1)c1ccccc1 (centres unmarked) [MMV688471] | 59.14% | 49.33% | –
O=C(Nc1cccc(Cl)c1)c1cnc(N2CCN(c3ccncc3)CC2)c(Cl)c1 [MMV024406] | 85.94% | 93.72% | –
Cc1cc(=O)[nH]c(-n2nc(C)cc2C)n1 [MMV393995] | 27.43% | 3.00% | –
Cc1[nH]c2ccccc2c1C(c1cccs1)N1CCN(C)CC1 (centres unmarked) [MMV688768] | 75.96% | -1.33% | –
CN1CCC(NCc2cccc(-c3ccc(S(=O)(=O)NCc4ccccc4)cc3)c2)CC1 [MMV022029] | 99.81% | 101.70% | –
CC(C)(C)OC(=O)N1CCN(c2cc(-c3ccc(Oc4ccccc4)cc3)n[nH]2)CC1 [MMV676057] | 119.16% | 36.52% | –
CCOc1ccc(OCC(=O)Nc2cc(C)cc(C)c2)cc1 [MMV676470] | 87.35% | 79.72% | –
c1ccc2c(c1)CN(CC1CC1)CC1(CCN(Cc3c[nH]c4cnccc34)CC1)O2 [MMV023183] | 103.26% | 84.53% | –
O=C(c1ccco1)N(CCCn1ccnc1)c1nc2c(Cl)cccc2s1 [MMV688936] | 80.40% | 77.21% | –
COC(=O)c1c(NC(=O)c2c(F)c(F)c(F)c(F)c2F)sc2c1CCCCC2 [MMV461553] | 48.03% | -0.44% | –
C[C@H]1COC2(CCN(c3nc(=O)c4cc(C(F)(F)F)cc([N+](=O)[O-])c4s3)CC2)O1 [MMV676603] | 83.14% | 75.26% | –
Cc1ccc(S(=O)(=O)Nc2ccc(CN3CCN(C(=O)c4cccc(C#N)c4)CC3)cc2)cc1 [MMV689028] | 54.14% | 72.62% | –
CCc1ccc(S(=O)(=O)Nc2cc(CN3CCN(CCC(C)C)CC3)ccc2C)cc1 [MMV688124] | 85.13% | 56.21% | –
COc1cc(C2=NCCN2)ccc1-n1cc(-c2cccc(C3=NCCN3)c2)nn1 [MMV688474] | 77.71% | 76.43% | –
Cc1cc(Cl)c(S(=O)(=O)N2CCCC2)cc1OCC(=O)NC1CCCCC1 [MMV006833] | 98.68% | 81.43% | –
O=C(NC1CCN(c2ccnc3ccccc23)C1)c1cccc(C(F)(F)F)c1 (centres unmarked) [MMV023388] | 84.10% | 76.22% | –
Cc1ccc(S(=O)(=O)N2CCN(C(=O)c3cc(-c4ccccc4)n[nH]3)CC2)cc1 [MMV019742] | 69.14% | 102.67% | –
